In patent publication US6455700B1, “Process for preparing guanidine and amidine derivatives” (Boehringer Ingelheim Pharma KG., priority 1998, dated 2002):
Structures can show the parent of a compound that is named as a salt.

What was measured:
[1] = biological target: T1, NK1 receptor (substance P receptor) (Homo sapiens, UniProt P25103); assay: NK1 receptor affinity, displacement of 125I-labelled substance P on IM-9 cells; format: binding; settings: human lymphoblastoma cells (IM-9) with cloned NK1 receptors
T1 construct: expressed in transfected cells; host or cells: human lymphoblastoma cells (IM-9)
T1 sequence (P25103 whole entry): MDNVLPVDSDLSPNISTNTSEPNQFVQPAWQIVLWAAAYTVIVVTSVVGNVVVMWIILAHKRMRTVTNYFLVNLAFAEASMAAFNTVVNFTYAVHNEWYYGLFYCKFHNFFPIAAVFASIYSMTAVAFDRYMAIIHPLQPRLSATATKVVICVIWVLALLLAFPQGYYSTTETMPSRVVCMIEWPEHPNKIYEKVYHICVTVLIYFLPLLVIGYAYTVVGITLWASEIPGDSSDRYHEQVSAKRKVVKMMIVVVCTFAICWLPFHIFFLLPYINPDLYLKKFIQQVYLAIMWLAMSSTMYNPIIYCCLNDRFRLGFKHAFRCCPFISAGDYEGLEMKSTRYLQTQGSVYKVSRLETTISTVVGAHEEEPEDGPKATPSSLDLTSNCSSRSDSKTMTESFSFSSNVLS
Method: Results of investigations into the compound according to the invention: The receptor affinity for the NK1 receptor (substance P receptor) is determined on human lymphoblastoma cells (IM-9) with cloned NK1 receptors, by measuring the displacement of ^125I-labelled substance P. The Ki values thus obtained show the efficacy of the compounds.

| melting point | Ki [1] [nM] | Structure (SMILES) |
| --- | --- | --- |
| 128 to 138 °C |  | CN(CCc1cc(C(F)(F)F)cc(C(F)(F)F)c1)C(=O)C(c1ccccc1)N1CCN(C(=N)N)CC1 (racemic) (as salt: hydrochloride) [Example 1, (R,S)-1-Amidino-4-[2-phenylacetic acid-N-methyl-N-(3,5-bis-trifluoromethyl-phenyl-ethyl)-amide]-piperazine, dihydrochloride] |
|  | 0.45 | CN(CCc1cc(C(F)(F)F)cc(C(F)(F)F)c1)C(=O)C(c1ccccc1)N1CCN(C(=N)N)CC1 (racemic) [Example 1, (R,S)-1-Amidino-4-[2-phenylacetic acid-N-methyl-N-(3,5-bis-trifluoromethyl-phenyl-ethyl)-amide]-piperazine, dihydrochloride] |
| 176 to 186 °C (dec.) | 0.53 | CC(C)/N=C(/NC(C)C)N1CCN(C(C(=O)N(C)CCc2cc(C(F)(F)F)cc(C(F)(F)F)c2)c2ccccc2)CC1 (racemic) [Example 4] |
| 163 to 173 °C | 0.3 | CN(CCc1cc(C(F)(F)F)cc(C(F)(F)F)c1)C(=O)C(c1ccccc1)N1CCN(C2=NCCN2)CC1 (centres unmarked) [Example 2] |
| 69 to 79 °C | 0.2 | CNC(=N)N1CCN(C(C(=O)N(C)CCc2cc(C(F)(F)F)cc(C(F)(F)F)c2)c2ccccc2)CC1 (centres unmarked) [Example 3] |
| 174 to 184 °C (dec.) | 6.28 | CCN/C(=N/C(C)(C)C)N1CCN(C(C(=O)N(C)CCc2cc(C(F)(F)F)cc(C(F)(F)F)c2)c2ccccc2)CC1 (centres unmarked) [Example 5] |
|  | 0.88 | CN(CCc1cc(C(F)(F)F)cc(C(F)(F)F)c1)C(=O)C(c1ccccc1)N1CCN(/C(=N\C2CCCCC2)N(C)C2CCCCC2)CC1 (centres unmarked) [Example 6] |
| 182 to 188 °C (dec.) | 1.45 | CN(CCc1cc(C(F)(F)F)cc(C(F)(F)F)c1)C(=O)C(c1ccccc1)N1CCN(/C(=N\C2CCCCC2)NC2CCCCC2)CC1 (centres unmarked) [Example 7] |
|  | 0.19 | CN(CCc1cc(C(F)(F)F)cc(C(F)(F)F)c1)C(=O)[C@H](c1ccccc1)N1CCN(C2=NCCN2C)CC1 [Example 8] |
| 126 to 140 °C | 0.14 | C/N=C(\NC)N1CCN(C(C(=O)N(C)CCc2cc(C(F)(F)F)cc(C(F)(F)F)c2)c2ccccc2)CC1 (centres unmarked) [Example 9] |
|  | 0.12 | CN(C)C(=N)N1CCN(C(C(=O)N(C)CCc2cc(C(F)(F)F)cc(C(F)(F)F)c2)c2ccccc2)CC1 (centres unmarked) [Example 10] |
| 240 to 245 °C (dec.) | 0.32 | CN(CCc1cc(C(F)(F)F)cc(C(F)(F)F)c1)C(=O)C(c1ccccc1)N1CCN(C(=N)Nc2ccccc2)CC1 (centres unmarked) [Example 12] |
| 124 to 128 °C | 1.11 | CN(CCc1cc(C(F)(F)F)cc(C(F)(F)F)c1)C(=O)[C@H](c1ccccc1)N1CCN(/C(=N/C(=O)c2ccccc2)N(C)C)CC1.Cl [Example 27] |
|  | 4.16 | Cc1ccc(/N=C(\Nc2ccc(C)cc2)N2CCN(C(C(=O)N(C)CCc3cc(C(F)(F)F)cc(C(F)(F)F)c3)c3ccccc3)CC2)cc1 (centres unmarked) [Example 28] |
|  | 0.87 | CN(CCc1cc(C(F)(F)F)cc(C(F)(F)F)c1)C(=O)[C@H](c1ccccc1)N1CCN(/C(=N/C(=O)c2ccccc2)Nc2ccccc2)CC1 [Example 29] |
|  | 0.17 | CN(CCc1cc(C(F)(F)F)cc(C(F)(F)F)c1)C(=O)C(c1ccccc1)N1CCN(C(=N)N2CCOCC2)CC1 (centres unmarked) [Example 30] |
|  | 8.96 | CC(C)N/C(=N\C(=O)c1ccccc1)N1CCN(C(C(=O)N(C)CCc2cc(C(F)(F)F)cc(C(F)(F)F)c2)c2ccccc2)CC1 (centres unmarked) [Example 31] |
|  | 0.2 | CC(C)NC(=N)N1CCN(C(C(=O)N(C)CCc2cc(C(F)(F)F)cc(C(F)(F)F)c2)c2ccccc2)CC1 (centres unmarked) [Example 32] |
|  | 13.2 | CN(CCc1cc(C(F)(F)F)cc(C(F)(F)F)c1)C(=O)C(c1ccccc1)N1CCN(/C(=N/C(=O)c2ccccc2)NCc2ccccc2)CC1 (centres unmarked) [Example 33] |
|  | 0.37 | CN(CCc1cc(C(F)(F)F)cc(C(F)(F)F)c1)C(=O)C(c1ccccc1)N1CCN(/C(N)=N/Cc2ccccc2)CC1 (centres unmarked) [Example 34] |

| Structure (SMILES) | melting point | Ki [1] [nM] |
| --- | --- | --- |
| CN(CC(c1ccc(Cl)c(Cl)c1)N1CCN(C(=N)N)CC1)C(=O)Cc1cc(C(F)(F)F)cc(C(F)(F)F)c1 (centres unmarked) [Example 35] |  | 0.78 |
